Source: patent US20250052985A1, “SYSTEM AND METHOD FOR QUANTITATIVE PHASE IMAGING FOR MULTI-PARAMETRIC SCREENING OF TUMOR THERAPY RESPONSE” (UNIVERSITY OF UTAH RESEARCH FOUNDATION, priority 2023, published 2025)

Assays:
Format in all cases: cell-based
[1] = test system: primary tumor cells (Patient #1); assay: QPI on primary cells after two-week expansion, Patient #1; conditions: Patient #1
Procedure: In some embodiments, the QPI microscope system 110 applies multiparametric QPI to primary cells from two clinical samples stored in cell bank at, for example, the Huntsman Cancer Institute plated after thawing from liquid nitrogen and CD45+ depleted to reduce the number of immune cells, as shown in FIG. 26.
For example, the primary cells are plated as a 2D monolayer in Clever's complete medium in a 96 well plate (e.g., the well-plate 105) and are allowed to acclimate to cell culture conditions for 18 h prior to dosing with treatments assigned to each patient by a physician. […] The image 3600 is a QPI image of primary cells from a direct from thaw patient derived sample. […] The graph 3610 is a histogram of cell mass used to computationally filter, using the electronic controller 155, for low mass cells (shown in red in the image 3600 and the graph 3605). By using a cutoff between the peaks at, for example, 72 pg, low mass cells can be isolated that are not growing and remove such cells from analysis. […] Using this cutoff, the electronic controller 155 measures the dose response for cells in each condition to determine the EC50 and DoR for each condition studied for the primary cells, as shown in the graph 3615. The graph 3615 is a dose response plot for primary cells treated with therapies assigned to the patient by a physician. […] In some embodiments, the electronic controller 155 determines a drug response in cells from patient derived samples. For example, the electronic controller 155 determines the drug response in therapy treatment samples from patient derived samples.
In some embodiments, both samples are expanded from primary cells in 2D culture using optimized ex vivo culture conditions for 2 weeks, changing media every 3 days to further purify the tumor cells, as shown in a workflow 3700 of FIG. 27.

HCI-039 PDxO cells = assay: QPI on cells from patient-derived organoid HCI-039 (pleural effusion); conditions: HCI-039, pleural effusion
Procedure: In some embodiments, the QPI microscope system 110 performs QPI on cells from patient-derived organoids and direct-from-patient samples. For example, the electronic controller 155 analyzes data on cells from a set of 5 organoids representing samples collected from two patients, as illustrated by a workflow 3400 in FIG. 24. The workflow 3400 is an experiment workflow illustrating how assays are analyzed by the QPI microscope system 110. In some embodiments, the QPI microscope system 110 images cells for 48 h, and uses an automatic segmentation algorithm, via the electronic controller 155, to identify individual cells from background, as shown in images 3405 and 3410 of FIG. 24. […] The electronic controller 155 determines the mass of each cell by summing the cell mass over the segmented area. In some embodiments, plots of mass over time reveal single cell growth rates, as shown by graph 3415 of FIG. 24. The graph 3415 is a mass vs. time plot showing DMSO treated cells growing cells at a typical location. Cells outlined in green are shown as green on the plot, other growing cells are shown in purple. The electronic controller 155 determine the specific growth rate (SGR) by fitting a line to time-series mass measurements and normalizing by an initial mass predicted by the fit to account for the effect of cell size on growth rate. The electronic controller 155 fits SGR as a function of dose to a sigmoidal dose response curve using a 3-parameter Hill model to extract dose response measurements, as shown by graph 3420 of FIG. 24. […] In some embodiments, EC50 measured by the QPI microscope system 110 is strongly concordant with gold standard techniques such as CTG over 27 conditions (e.g., 9 compounds, 3 breast cancer cell lines). […] As with cell line data, QPI data on cells from PDxO resolves differences in temporal dynamics of response to therapy, as shown in graph 3425 of FIG. 24. […] In some embodiments, the electronic controller 155 is configured to determine a drug response of each of the plurality of treatment samples from patient derived organoids. […]

HCI-038 PDxO cells = assay: QPI on cells from patient-derived organoid HCI-038 (bone metastasis); conditions: HCI-038, bone metastasis
Procedure: In some embodiments, the QPI microscope system 110 performs QPI on cells from patient-derived organoids and direct-from-patient samples. For example, the electronic controller 155 analyzes data on cells from a set of 5 organoids representing samples collected from two patients, as illustrated by a workflow 3400 in FIG. 24. The workflow 3400 is an experiment workflow illustrating how assays are analyzed by the QPI microscope system 110. In some embodiments, the QPI microscope system 110 images cells for 48 h, and uses an automatic segmentation algorithm, via the electronic controller 155, to identify individual cells from background, as shown in images 3405 and 3410 of FIG. 24. […] The electronic controller 155 determines the mass of each cell by summing the cell mass over the segmented area. In some embodiments, plots of mass over time reveal single cell growth rates, as shown by graph 3415 of FIG. 24. The graph 3415 is a mass vs. time plot showing DMSO treated cells growing cells at a typical location. Cells outlined in green are shown as green on the plot, other growing cells are shown in purple. […] In some embodiments, EC50 measured by the QPI microscope system 110 is strongly concordant with gold standard techniques such as CTG over 27 conditions (e.g., 9 compounds, 3 breast cancer cell lines). […]

Structure (SMILES) | EC50 compared with eribulin [1] | response compared with primary lesion model (HCI-039 PDxO cells) | response compared with primary lesion model (HCI-038 PDxO cells)
COc1cccc2c1C(=O)c1c(O)c3c(c(O)c1C2=O)C[C@@](O)(C(=O)CO)C[C@@H]3O[C@H]1C[C@H](N)[C@H](O)[C@H](C)O1 [Doxorubicin] | lower EC50 than eribulin | – | –
CC[C@]1(O)C[C@@H]2CN(CCc3c([nH]c4ccccc34)[C@@](C(=O)OC)(c3cc4c(cc3OC)N(C)[C@H]3[C@@](O)(C(=O)OC)[C@H](OC(C)=O)[C@]5(CC)C=CCN6CC[C@]43[C@@H]65)C2)C1 [Vinblastine] | – | stronger response | stronger response
